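Compound exposure: 48 hours, 5 concentrations, 96-well plates. GI50: concentration for 50% inhibition of growth. TGI denotes the concentration required for complete inhibition of growth.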
Experiments:
Assay in all cases: NCI anticancer screen, dose series, 48 h; in the data active = GI50 below about 0.43 µM; inactive = the rest
[1] = system: NCI-H23 lung
[2] = system: 786-0 renal
[3] = system: NCI/ADR-RES ovarian
[4] = system: EKVX NSCLC
[5] = system: NCI-H460 lung
[6] = system: SK-MEL-28 melanoma
[7] = system: OVCAR-5 ovarian
[8] = system: HCT-116 colon
[9] = system: T-47D breast
[10] = system: SK-MEL-5 melanoma
[11] = system: DU-145 prostate
[12] = system: IGROV1 ovarian
[13] = system: NCI-H226 lung
[14] = system: A549 NSCLC
[15] = system: HT29 colon
[16] = system: HCT-15 colon
[17] = system: NCI-H522 lung
[18] = system: MDA-N
[19] = system: MDA-MB-435
[20] = system: SW-620 colon
[21] = system: SN12C renal
[22] = system: CCRF-CEM leukemia
[23] = system: U251 CNS
[24] = system: UO-31 renal
[25] = system: MCF7 breast
[26] = system: MDA-MB-231 breast
[27] = system: HCC-2998 colon
[28] = system: MOLT-4 leukemia
[29] = system: CAKI-1 renal
[30] = system: HOP-62 NSCLC
[31] = system: RPMI-8226 leukemia
[32] = system: SNB-75 CNS
[33] = system: KM12 colon
[34] = system: HS 578T breast
[35] = system: OVCAR-4 ovarian
[36] = system: SR leukemia
[37] = system: RXF 393 renal
[38] = system: LOX IMVI melanoma
[39] = system: UACC-62 melanoma
[40] = system: M14 melanoma
[41] = system: HL-60(TB) leukemia
[42] = system: UACC-257 melanoma
[43] = system: COLO 205 colon
[44] = system: HOP-92 NSCLC
[45] = system: SF-539 CNS
[46] = system: A498 renal
[47] = system: SF-268 CNS
[48] = system: SK-OV-3 ovarian
[49] = system: OVCAR-8 ovarian
[50] = system: SF-295 CNS
[51] = system: OVCAR-3 ovarian
[52] = system: ACHN renal
[53] = system: TK-10 renal
[54] = system: K-562 leukemia
[55] = system: SNB-19 CNS
[56] = system: PC-3 prostate
[57] = system: MALME-3M melanoma
[58] = system: SK-MEL-2 melanoma
[59] = system: BT-549 breast

O=C(CC(C(=O)c1ccco1)c1ccsc1)c1ccco1 (configuration not stated)
> 100 µM: TGI [1] | TGI [2] | TGI [3] | TGI [4] | TGI [5] | TGI [6] | TGI [7] | TGI [8] | TGI [9] | TGI [10] | TGI [11] | TGI [12] | TGI [13] | TGI [14] | TGI [15] | TGI [16] | TGI [17] | TGI [18] | TGI [19] | TGI [20] | TGI [21] | TGI [22] | TGI [23] | TGI [24] | TGI [25] | TGI [26] | TGI [27] | TGI [28] | TGI [29] | TGI [30] | TGI [31] | TGI [32] | TGI [33] | TGI [34] | TGI [35] | TGI [36] | TGI [37] | TGI [38] | TGI [39] | TGI [40] | TGI [41] | TGI [42] | TGI [43] | TGI [44] | TGI [45] | TGI [46] | TGI [47] | TGI [48] | TGI [49] | TGI [50] | TGI [51] | TGI [52] | TGI [53] | TGI [54]

C=CC(=O)N1CCN(c2nc(=O)n(-c3c(C)ccnc3C(C)C)c3nc(-c4c(O)cccc4F)c(F)cc23)[C@@H](C)C1
active: GI50 [30] < 0.0291 µM
> 90.9 µM: TGI [31] | TGI [53]
> 47.2 µM: TGI [1]
98.3 µM: TGI [11]
inactive: GI50 [2] 14.7 µM | GI50 [3] > 100 µM | GI50 [4] 48.6 µM | GI50 [5] 43.4 µM | GI50 [6] > 58.7 µM | GI50 [7] 62.9 µM | GI50 [55] 57.8 µM | GI50 [56] 31.8 µM | GI50 [8] 15.1 µM | GI50 [9] 40.9 µM | GI50 [10] 27.8 µM | GI50 [11] 30.9 µM | GI50 [57] 20.8 µM | GI50 [12] > 44.7 µM | GI50 [13] 25.4 µM | GI50 [14] > 46.5 µM | GI50 [15] 35.9 µM | GI50 [16] 29.5 µM | GI50 [17] 29.8 µM | GI50 [19] 25.1 µM | GI50 [20] 36.8 µM | GI50 [21] 38 µM | GI50 [22] 25.7 µM | GI50 [23] 48.7 µM | GI50 [24] > 62.3 µM | GI50 [25] 34.1 µM | GI50 [26] 25.4 µM | GI50 [27] 19.1 µM | GI50 [28] 18.7 µM | GI50 [29] 40.3 µM | GI50 [31] 18.1 µM | GI50 [32] 36.1 µM | GI50 [33] 23.4 µM | GI50 [34] 45.7 µM | GI50 [35] 35.8 µM | GI50 [36] 17.3 µM | GI50 [37] 17.7 µM | GI50 [38] 16.9 µM | GI50 [39] 28.4 µM | GI50 [40] 17 µM | GI50 [41] 20.5 µM | GI50 [58] 31 µM | GI50 [42] > 56.2 µM | GI50 [43] 39.9 µM | GI50 [44] 29.8 µM | GI50 [45] 23.3 µM | GI50 [46] 11.8 µM | GI50 [47] 35.6 µM | GI50 [59] 15.8 µM | GI50 [48] > 77.8 µM | GI50 [49] 30.9 µM | GI50 [50] 44.4 µM | GI50 [51] 30.1 µM | GI50 [52] 40.9 µM | GI50 [53] 23.8 µM | GI50 [54] 23.2 µM
> 100 µM: TGI [3] | TGI [4] | TGI [5] | TGI [6] | TGI [7] | TGI [55] | TGI [9] | TGI [13] | TGI [15] | TGI [17] | TGI [20] | TGI [21] | TGI [23] | TGI [24] | TGI [25] | TGI [29] | TGI [34] | TGI [35] | TGI [42] | TGI [43] | TGI [47] | TGI [48] | TGI [49] | TGI [50] | TGI [52]
> 58.8 µM: TGI [44]
71 µM: TGI [28]
> 85 µM: TGI [54]
53.8 µM: TGI [41]
> 66.5 µM: TGI [30]
36.3 µM: TGI [2] | TGI [8]
> 91.4 µM: TGI [32]
70.3 µM: TGI [36]
> 96.3 µM: TGI [56]
64 µM: TGI [57]
54 µM: TGI [33]
> 54.1 µM: TGI [46]
38.1 µM: TGI [38]
35.9 µM: TGI [27]
> 73.6 µM: TGI [39]
83.1 µM: TGI [22]
59.2 µM: TGI [37]
> 51.3 µM: TGI [59]
70 µM: TGI [19]
> 74.3 µM: TGI [16]
64.2 µM: TGI [45]
> 86 µM: TGI [51]
> 77.2 µM: TGI [14]
> 78 µM: TGI [58]
> 52.6 µM: TGI [40]
> 73.9 µM: TGI [12]
85.2 µM: TGI [26]
> 59.1 µM: TGI [10]

CC(C)CC1C(=O)NCCC(NC(=O)C(N)Cc2ccc(O)cc2)C(=O)NC(Cc2ccccc2)C(=O)NC(Cc2ccccc2)NC1=O (configuration not stated)
> 100 µM: TGI [1] | TGI [2] | TGI [3] | TGI [4] | TGI [5] | TGI [6] | TGI [7] | TGI [55] | TGI [56] | TGI [8] | TGI [9] | TGI [10] | TGI [11] | TGI [57] | TGI [12] | TGI [13] | TGI [14] | TGI [15] | TGI [16] | TGI [17] | TGI [18] | TGI [19] | TGI [20] | TGI [21] | TGI [22] | TGI [23] | TGI [24] | TGI [25] | TGI [26] | TGI [27] | TGI [28] | TGI [29] | TGI [30] | TGI [31] | TGI [32] | TGI [33] | TGI [34] | TGI [35] | TGI [36] | TGI [37] | TGI [38] | TGI [39] | TGI [40] | TGI [41] | TGI [58] | TGI [42] | TGI [43] | TGI [44] | TGI [45] | TGI [46] | TGI [47] | TGI [48] | TGI [49] | TGI [50] | TGI [51] | TGI [52] | TGI [53] | TGI [54]

From PubChem BioAssay (NCI)
